This is an account of results in EPA's ToxValDB 9.5.

Data set [1] concerns Mus musculus.
Another data set deals with Oryctolagus sp. Particulars: acute; dermal; New Zealand.
Data set [2] deals with Rattus norvegicus.
The test system of a further data set is Cricetulus sp. Particulars: for NOAEL: oral, gavage, Hamster.
Data set [3] deals with Mus musculus. Particulars: chronic, oral, M/F.
The test system of data set [4] is Mus musculus. Particulars: oral.
Data set [5] relates to Rattus norvegicus. Particulars: oral, gavage, M.
Data set [6] relates to Canidae. Particulars: oral, M/F, Dog Other.
In data set [7] the test system is Rattus norvegicus. The source holds these as a separate data set.
In data set [8] the test system is Canidae. Particulars: oral, Dog Other.
Data set [9] concerns Rattus norvegicus. Particulars: reproduction developmental; oral; M/F; forelimb hair loss + Parturition mortality.
The subject of data set [10] is Homo sapiens. Particulars: clinical; duration: 5 minutes; inhalation; M; respiratory.
The subject of data set [11] is Rattus norvegicus. Particulars: reproduction developmental; duration: 204 days; oral; gavage; M/F; Sprague-Dawley; reproductive.
In data set [12] the test system is Homo sapiens. Particulars: clinical, oral, diet.
The subject of a further data set is Cavia porcellus. Particulars: acute, duration: 1 days, oral, gavage, M, Guinea Pig.
Data set [13] relates to Rattus norvegicus. Particulars: short-term; duration: 3 days; injection; subcutaneous; F; Crj:CD; uterus: uterine dry weight (absolute).
The subject of data set [14] is Mus musculus. Particulars: repeat dose other; oral.
Setting [15] is: chronic, duration: 14 weeks, inhalation, F, B6C3F1.
Where [16] appears, read: chronic, duration: 14 weeks, inhalation, M, B6C3F1.
Where [17] appears, read: chronic, duration: 14 weeks, inhalation, F, Fischer 344.
[18] abbreviates: chronic, duration: 14 weeks, inhalation, M, Fischer 344.
[19] abbreviates: short-term, duration: 28 days, Sprague-Dawley, Clinical Observation: Salivationlocomotor activity decrease, Soft stool/diarrhea + Urinalysis: Brownish urine Occult blood + Hematology: PT ….
Where [20] appears, read: chronic, duration: 2 years, diet, renal tubular epithelial vacuolation.
Setting [21] is: subchronic, internal hemorrhage, mortality.

In the case of `CC1=CCC2CC1C2(C)C` (stereo not drawn) [alpha-Pinene], the LOAEL amounted to 557 mg/m3 with Mus musculus [1] (setting [15]), 557 mg/m3 with Mus musculus [1] (setting [16]), 340 mg/kg-day with Rattus norvegicus [2] (setting [17]) and 42 mg/kg-day in the data set with Rattus norvegicus [2] (setting [18]). Also, the NOAEL in the data set with Mus musculus [1] (setting [15]) is 279 mg/m3; with Mus musculus [1] (setting [16]) it was 279 mg/m3; in the data set on Mus musculus [1] (reproduction developmental, duration: 10 days, oral, gavage, F, CD1) it was 560 mg/kg-day; with Rattus norvegicus [2] (setting [17]) it was 170 mg/kg-day; in the data set with Rattus norvegicus [2] (setting [18]), 21 mg/kg-day; with Rattus norvegicus [2] (developmental, duration: 10 days, oral, gavage, Wistar) it was 260 mg/kg-day. For the same molecule, the NOAEL in the data set on Rattus norvegicus [2] (reproduction developmental, duration: 10 days, oral, gavage, F, Wistar) amounted to 260 mg/kg-day; in the data set on Cricetulus sp. (developmental, duration: 10 days), 600 mg/kg-day; in the data set on Cricetulus sp. (reproduction developmental, duration: 10 days, F), 600 mg/kg-day; in the data set with Cricetulus sp. (reproduction developmental), 600 mg/kg-day. Moreover, the LD50 with Oryctolagus sp. is over 5000 mg/kg; in the data set on Rattus norvegicus [2] (acute, oral, Wistar), 3700 mg/kg.
Regarding `Nc1ccc(-c2ccc(N)cc2)cc1` [C.I. Azoic Diazo Component 112], the LOAEL amounted to 2.7 mg/kg-day in the data set with Mus musculus [3] (Brain cell vacuolization + liver cell alterations in females) and 2.7 mg/kg-day in the data set on Mus musculus [4] (chronic, duration: 33 months, drinking water, Brain: Cellular changes + Liver: Cellular changes).
Turning to `N#Cc1c(Cl)c(Cl)c(Cl)c(C#N)c1Cl` [Chlorothalonil], in the data set with Rattus norvegicus [5] (setting [19]), the NOAEL is under 100 mg/kg-day. The NOEL in the data set on Rattus norvegicus [5] (setting [19]) was under 100 mg/kg-day; in the data set with Canidae [6] (setting [20]) it was 1.5 mg/kg-day; in the data set with Rattus norvegicus [7] (Hershberger, duration: 10 days, oral, gavage, Sprague-Dawley, inactive + Negative + Negative + neither + see note), 175 mg/kg-day; with Canidae [8] (chronic, duration: 2 years, diet, Kidney: Effects) it was 1.5 mg/kg-day. The molecule further gave an LEL in the data set on Canidae [6] (setting [20]) of 3 mg/kg-day.
Consider `[P]` [Phosphorus], for which the LOAEL with Rattus norvegicus [9] turned out to be 0.075 mg/kg-day; in the data set on Homo sapiens [10], 187 mg/m3. Besides, the NOAEL in the data set with Rattus norvegicus [9] and in the data set with Rattus norvegicus [11] was 0.015 mg/kg-day in each case.
On to `O=C1OC(=O)c2ccccc21` [Phthalic anhydride], for which the LOAEL amounted to 1560 mg/kg-day in the data set with Mus musculus [3] (lung and kidney histopathology); 1560 mg/kg-day with Mus musculus [4] (chronic, duration: 104 weeks, diet, Kidney: Histopathology + Lung: Histopathology).
Consider `CCN(CC)c1nc(C)cc(OP(=S)(OC)OC)n1` [Pirimiphos-methyl], for which the NOEL came out at 0.25 mg/kg-day with Homo sapiens [12] (duration: 28 days, M, Borderline ChE depression) and 0.25 mg/kg-day in the data set on Homo sapiens [12] (duration: 56 days, M/F, Transient plasma ChE depression).
With `ClC1=C(Cl)[C@]2(Cl)[C@@H]3[C@@H](Cl)[C@H]4O[C@H]4[C@@H]3C1(Cl)C2(Cl)Cl` [Heptachlor epoxide B], the LEL with Canidae [6] (chronic, duration: 60 weeks, diet, increased liver-to-body weight ratio in both males and females) amounted to 0.0125 mg/kg-day. The same molecule showed an LOAEL in the data set with Canidae [8] (chronic, duration: 60 weeks, diet, Liver: Increased relative weight) of 0.0125 mg/kg-day.
For the molecule `COCCl` [Chloromethyl methyl ether], the NOEL in the data set with Rattus norvegicus [5] (subchronic, duration: 42 days, CD(SD), Body Weight Changes: decrease + Food Consumption: decrease + Urinalysis: Osm decrease + Hematology: RET increase, WBC increase, LYMPH …) is under 15 mg/kg-day. The LC50 is 181 mg/m3 with Rattus norvegicus [2] (acute, inhalation, Sprague-Dawley) and 214 mg/m3 with Cricetulus sp. (acute, inhalation, Golden Syrian). This molecule came in with an LD50 in the data set on Rattus norvegicus [2] (acute, oral) of 817 mg/kg. Besides, the no-observed-adverse-effect level (NOAEL) was 132 mg/m3 in the data set on Rattus norvegicus [2] (developmental, duration: 15 days, inhalation, Sprague-Dawley) and 0.006 mg/L in the data set with Rattus norvegicus [2] (reproduction developmental, duration: 10 days, inhalation, F, Sprague-Dawley).
Take `O=CC(Cl)(Cl)Cl` [Chloral]: the lowest observed adverse effect level (LOAEL) in the data set with Mus musculus [4] (subchronic, duration: 90 days, drinking water, Liver: Effects) was 15.7 mg/kg-day.
With `O=C(O)CCCOc1ccc(Cl)cc1Cl` [2,4-Dichlorophenoxybutyric acid], in the data set on Canidae [6] (setting [21]), the LOAEL worked out at 25 mg/kg-day and the NOAEL stood at 8 mg/kg-day. The NOAEL in the data set on Canidae [8] (subchronic, duration: 90 days, diet, Cardiovascular system: Hemorrhage + Whole body: Increased mortality) stood at 8 mg/kg-day.
In the data set with Rattus norvegicus [7] (uterotrophic, duration: 3 days, injection, subcutaneous, Active), `Oc1ccccc1Cc1ccccc1O` [2,2'-Bisphenol F] showed an LEL of 46.5 mg/kg-day. In addition, the LOEL in the data set with Cavia porcellus (BALF eosinophil peroxidase activity + BALF histamine activity + BALF total leukocytes + specific airway resistance (sRaw) - immediate …) was found to be 12.5 mg/kg-day; in the data set with Cavia porcellus (BALF phospholipase A2 activity) it was 50 mg/kg-day; with Rattus norvegicus [13] it was 200 mg/kg-day. Moreover, the NOEL in the data set with Cavia porcellus (BALF phospholipase A2 activity) is 25 mg/kg-day; with Rattus norvegicus [13], 20 mg/kg-day.
For `CNC(=O)ON=C(CSC)C(C)(C)C`, the no-observed-adverse-effect level (NOAEL) with Canidae [8] (short-term, duration: 8 days, Cholinesterase: Decreased cholinesterase activity) came out at 0.025 mg/kg-day.
In the data set on Mus musculus [14], `ClC(Cl)=C(Cl)Cl` [Tetrachloroethylene] displayed an LOAEL of 7 mg/kg-day and an NOAEL of 1.4 mg/kg-day. This molecule displayed an NOAEL in the data set with Mus musculus [4] (subchronic, duration: 6 weeks, Liver: Hepatotoxicity) of 14 mg/kg-day.

As usually defined, the LOAEL is the lowest tested level that showed an adverse finding. In general, NOAEL refers to the highest dose or exposure tested at which no adverse effect was seen. What is called LD50 is the dose expected to kill half of the subjects tested. Read a low LD50 as a more toxic substance.
